{"source": "patent US8492520B2", "about": "“Binding epitopes for G250 antibody” (Wilex AG, priority 2007, dated 2013)", "tested_on": "G250 antibody", "test": "conformational epitope mapping of carbonic anhydrase IX peptide sections on scaffolds, binding to G250 antibody", "conditions": "core sequences shared by the best-binding peptides", "procedure": "Short peptide sections of CA-IX which bind to the G250 antibody were determined by means of conformational epitope mapping of carbonic anhydrase using the scaffolds shown in FIG. 2. The following 15 sequences were identified as peptide sections having the highest binding capacity: […]"}
{"sequence": "LSTAFARV [SEQ ID NO:1]", "values": [{"measurement": "recognition by G250 antibody (rank of epitope sequence)", "value": "dominantly recognized"}]}
